Where a name gives a salt, the structure may show the parent alone.
Key:
[1] = Storage stability of derivatizing agent, monitored by total LOCI assay signal modulation (three-reagent protocol); assay type: physicochemical
Method: A 50 μL mixture of hcy-ABA-sensitizer beads (0.1 mg/ml) and 2 mM TCEP is added to 5 μL hcy serum calibrator in a reaction cuvette, followed by the addition of 50 μL assay buffer. The mixture is incubated for 417 sec. Then, 50 μL of 5 mM BABA is added and followed by 45 μL assay buffer. Following incubation for 157 sec., 50 μL of Ab-coated acceptor beads (at 0.25-0.5 mg/ml) is added. After incubation for 154 sec., the sample is read.
In Table 2, the three-reagent protocol is used as described previously, with 5 mM BABA stored in a different pH buffer as R-2 (reagent 2).
The activity of BABA is monitored by the amount of total assay signal modulation obtained by LOCI using the three-reagent protocol.
The three-reagent assay protocol using CABA-phosphate as derivatizing agent is also assessed. Similar results are obtained with hcy serum calibrators as in the three-reagent protocol using BABA (not shown). The stability of CABA is also studied. The activity of CABA-phosphate as derivatizing agent is monitored by the amount of total assay signal modulation obtained by LOCI using the three-reagent protocol. In Table 3, the three-reagent assay protocol is used with CABA-phosphate stored at two temperatures in pH 9.0 as R-2; mixed hcy-sensitizer beads and TCEP as R-1; mixed Ab-acceptor beads and alkaline phosphatase as R-3.

[2] = molecular target: T1, alkaline phosphatase (Sigma, human placenta) (Homo sapiens, UniProt P05187); assay: Deprotection of phosphate protecting group by alkaline phosphatase (TLC, NMR); assay type: biochemical; details: mixture of BABA-phosphate and CABA-phosphate, 5 mg in 1 mL pH 8-9 NaOD/D2O, 1 mg (15 units) enzyme, 15 minutes, room temperature
T1 construct: alkaline phosphatase (Sigma, human placenta); purchased Sigma; host or cells: human placenta (tissue-derived)
Method: A mixture of BABA-phosphate and CABA-phosphate (resulting from preparation of BABA-phosphate), 5 mg in 1 mL pH 8-9 NaOD/D2O is treated with 1 mg (15 units) of alkaline phosphatase (Sigma, human placenta) for 15 minutes at room temperature.
Reaction of the crude product of the reaction with alkaline phosphatase, for about ten (10) minutes, with cysteine, results in the disappearance of the first product, deprotected alkylating reagent, and appearance of a more polar product. The latter is assumed to be an adduct of the alkylating reagent and cysteine.

Solubility = assay type: physicochemical; details: over a wide pH range
[3] = Stability of alkylating reagent in the presence of reducing agent TCEP (TLC); assay type: physicochemical; details: 5 mM each in phosphate buffer pH 7, sixteen (16) hours, room temperature

T1 sequence (P05187 23-506): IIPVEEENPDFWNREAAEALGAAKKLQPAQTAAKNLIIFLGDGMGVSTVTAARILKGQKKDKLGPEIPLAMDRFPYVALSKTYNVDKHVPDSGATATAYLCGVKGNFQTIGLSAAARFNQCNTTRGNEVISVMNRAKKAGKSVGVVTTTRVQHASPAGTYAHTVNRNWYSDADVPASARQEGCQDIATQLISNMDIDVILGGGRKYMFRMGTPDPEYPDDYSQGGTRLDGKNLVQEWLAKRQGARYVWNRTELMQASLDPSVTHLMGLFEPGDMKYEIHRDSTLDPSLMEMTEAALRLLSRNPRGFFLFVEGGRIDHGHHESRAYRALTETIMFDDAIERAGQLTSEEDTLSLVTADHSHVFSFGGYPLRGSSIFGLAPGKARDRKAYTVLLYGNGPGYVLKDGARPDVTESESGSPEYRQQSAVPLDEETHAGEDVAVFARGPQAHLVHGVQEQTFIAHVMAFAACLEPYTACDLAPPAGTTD

| stability of BABA in solution ([1]; even at the optimum condition, pH 6.0) | removal of the phosphate group by alkaline phosphatase (TLC, NMR) [2] | solubility (Solubility) | % Modulation (0 to 60 μM) ([1]; 5 mM in 50 mM borate buffer pH 9.0, stored @4° C., 1 wk) [%] | % Modulation (0 to 60 μM) ([1]; 5 mM in 50 mM borate buffer pH 9.0, stored @4° C., 2 wks) [%] | % Modulation (0 to 60 μM) ([1]; 5 mM in 50 mM borate buffer pH 9.0, stored @4° C., 5 wks) [%] | % Modulation (0 to 60 μM) ([1]; 5 mM in 50 mM borate buffer pH 9.0, stored @4° C., 7 wks) [%] | % Modulation (0 to 60 μM) ([1]; 5 mM in 50 mM borate buffer pH 9.0, stored @4° C., 10 wks) [%] | % Modulation (0 to 60 μM) ([1]; 5 mM in 50 mM borate buffer pH 9.0, stored @4° C., 13 wks) [%] | % Modulation (0 to 60 μM) ([1]; 5 mM in 50 mM borate buffer pH 9.0, stored @4° C., o/n) [%] | % Modulation (0 to 60 μM) ([1]; 5 mM in 50 mM borate buffer pH 9.0, stored @37° C., 1 wk) [%] | % Modulation (0 to 60 μM) ([1]; 5 mM in 50 mM borate buffer pH 9.0, stored @37° C., 2 wks) [%] | % Modulation (0 to 60 μM) ([1]; 5 mM in 50 mM borate buffer pH 9.0, stored @37° C., 5 wks) [%] | % Modulation (0 to 60 μM) ([1]; 5 mM in 50 mM borate buffer pH 9.0, stored @37° C., 7 wks) [%] | % Modulation (0 to 60 μM) ([1]; 5 mM in 50 mM borate buffer pH 9.0, stored @37° C., 10 wks) [%] | % Modulation (0 to 60 μM) ([1]; 5 mM in 50 mM borate buffer pH 9.0, stored @37° C., 13 wks) [%] | % Modulation (0 to 60 μM) ([1]; 5 mM in 50 mM borate buffer pH 9.0, stored @37° C., o/n) [%] | shelf life compared with BABA ([1]; three-reagent protocol, Table 3) | reaction of the protected alkylating reagent with TCEP (TLC) [3] | SMILES |
| --- | --- | --- | --- | --- | --- | --- | --- | --- | --- | --- | --- | --- | --- | --- | --- | --- | --- | --- | --- |
| limited stability | – | – | – | – | – | – | – | – | – | – | – | – | – | – | – | – | – | – | O=C(O)c1ccc(C(=O)CBr)cc1 [BABA, bromoacetylbenzoic acid, reference compound] |
| – | removed | readily soluble | 54 | 56 | 55 | 54 | 51 | 45 | 57 | 45 | 51 | 50 | 51 | 44 | 35 | 55 | much longer shelf life than BABA | resistant to reaction with TCEP | O=C(O)c1ccc(/C(=C/Cl)OP(=O)(O)O)cc1 [CABA-phosphate, 4-(chloroacetyl)benzoate enol-phosphate sodium salt] |

— patent publication US6783947B1, “Protecting groups for biological labeling” (Dade Behring Marburg GmbH, priority 1999, dated 2004)
